These results are taken from patent US10363257B2 (ZENITH EPIGENETICS LTD., priority 2013, dated 2019).

One assay has as its system c-myc. As to the kind of experiment: Inhibition of c-myc expression (mRNA, real-time PCR) in MV4-11 cells. The assay is classed as cell-based. The note with it: Human AML MV4-11 cells, 3 h, cMYC mRNA. A digest of the protocol:
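One-step TaqMan qPCR of cMYC, normalized to an internal control with Cyclophilin probes run, gave fold expression versus DMSO (0.1%) control. Samples: triplicate MV4-11 wells exposed 3 h at 37° C to rising compound concentrations in IMDM with 10% FBS.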
On the technique in general: In qPCR the cycle at which signal appears reflects the starting amount.

Assay [1] concerns the target T1, Brd4 bromodomain 1 (BRD4(1)) (Homo sapiens, UniProt O60885).
T1 construct: made in house; host or cells: E. coli BL21(DE3)
Description: Inhibition of tetra-acetylated histone H4 binding to Brd4 bromodomain 1 (TR-FRET). The note with it: tetra-acetylated histone H4 peptide, first bromodomain of Brd4. A digest of the protocol:
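Serially diluted compound (0.2% DMSO) incubated 2 h at room temperature with 200 nM N-His BRD4 bromodomain 1 and 25-50 nM biotinylated tetra-acetyl H4 peptide, detected via Eu-streptavidin/XL665 anti-His. Loss of 665 nm relative to 620 nm signal gave IC50 from dose-response.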

The next assay relates to hIL-6 mRNA. As to the kind of experiment: Inhibition of hIL-6 mRNA transcription in LPS-stimulated U937 cells. The assay is classed as cell-based. The note with it: Homo sapiens, U-937; PMA-differentiated U937 cells, 1 h pretreatment, 1 ug/mL LPS stimulation, 3 h; read-out: IL-6 activity (Inhibition of hIL-6 mRNA Transcription). A digest of the protocol: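 U937 cells differentiated 3 days with 60 ng/mL PMA, pretreated 1 h with compound (0.1% DMSO), then stimulated with 1 ug/mL E. coli LPS for 3 h at 37 °C. hIL-6 mRNA measured by one-step TaqMan RT-qPCR, normalized to cyclophilin. Fold expression relative to control; triplicate wells.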

The test system of a further assay is human AML MV-4-11 cells. Description: Inhibition of cell proliferation in MV4-11 cells (CellTiter Aqueous One). The settings on record: for IC50: MV4-11, 72 h. It counts as cell-based. Put shortly:
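IC50 values come from blank-corrected proliferation relative to DMSO controls, read as 490 nm absorbance 3–4 h after CellTiter Aqueous One addition. Before that, cells seeded at 5×10^4/well were exposed for 72 h (37° C, 5% CO2) to triplicate two-fold compound dilutions spanning 30–0.2 μM.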

As to `Cc1noc(C)c1-c1cnc2c(c1)ncn2Cc1ccc(F)cc1` [Example Compound 44, 4-(3-(4-fluorobenzyl)-3H-imidazo[4,5-b]pyridin-6-yl)-3,5-dimethylisoxazole], the IC50 in the assay on c-myc is 3000 to 30000 nM; in assay [1], 300 to 3000 nM; with hIL-6 mRNA, 300 to 3000 nM; in the assay on human AML MV-4-11 cells, 3000 to 30000 nM.

As for `Cc1noc(C)c1-c1cnc2c(c1)ncn2Cc1ccccn1` [Example Compound 46, 3,5-dimethyl-4-(3-(pyridin-2-ylmethyl)-3H-imidazo[4,5-b]pyridin-6-yl)isoxazole], the IC50 in the assay on c-myc lay in the range of 3000 to 30000 nM; in assay [1] it was 300 to 3000 nM; in the assay on hIL-6 mRNA, 3000 to 30000 nM; in the assay with human AML MV-4-11 cells it was 3000 to 30000 nM.

For `Cc1noc(C)c1-c1cnc2ccn(Cc3ccc(F)cc3)c2c1` [Example Compound 48, 4-(1-(4-fluorobenzyl)-1H-pyrrolo[3,2-b]pyridin-6-yl)-3,5-dimethylisoxazole], the IC50 was 300 to 3000 nM in the assay on c-myc, at most 300 nM in assay [1], 300 to 3000 nM in the assay on hIL-6 mRNA and 3000 to 30000 nM in the assay with human AML MV-4-11 cells.

As for `Cc1noc(C)c1-c1ccc2ccn(Cc3ccc(F)cc3)c2n1` [Example Compound 49, 4-(1-(4-fluorobenzyl)-1H-pyrrolo[2,3-b]pyridin-6-yl)-3,5-dimethylisoxazole], the IC50 (in the assay on c-myc; in assay [1]; in the assay on hIL-6 mRNA; in the assay with human AML MV-4-11 cells) was 3000 to 30000 nM each time.

`Cc1noc(C)c1-c1cnc2ccn(Cc3ccc(F)cc3)c2n1` [Example Compound 50, 4-(5-(4-fluorobenzyl)-5H-pyrrolo[2,3-b]pyrazin-3-yl)-3,5-dimethylisoxazole]: the IC50 is 3000 to 30000 nM with c-myc, at most 300 nM in assay [1], 300 to 3000 nM with hIL-6 mRNA and 3000 to 30000 nM with human AML MV-4-11 cells.

For the compound `Cc1noc(C)c1-c1cc(N)c2ccn(Cc3ccc(F)cc3)c2n1` [Example Compound 52, 6-(3,5-dimethylisoxazol-4-yl)-1-(4-fluorobenzyl)-1H-pyrrolo[2,3-b]pyridin-4-amine], the IC50 with c-myc lay within 3000 to 30000 nM; in assay [1] it was 300 to 3000 nM; in the assay with hIL-6 mRNA, 300 to 3000 nM; in the assay with human AML MV-4-11 cells, 300 to 3000 nM.

With `Cc1noc(C)c1-c1cc(N)c2cnn(Cc3ccccc3)c2c1` [Example Compound 54, 1-benzyl-6-(3,5-dimethylisoxazol-4-yl)-1H-indazol-4-amine], the IC50 is 300 to 3000 nM in the assay with c-myc, at most 300 nM in assay [1], 300 to 3000 nM in the assay on hIL-6 mRNA and 300 to 3000 nM with human AML MV-4-11 cells.

As to `Cc1noc(C)c1-c1cnc2nc(C)n(Cc3ccc(F)cc3)c2c1` [Example Compound 58, 4-(1-(4-fluorobenzyl)-2-methyl-1H-imidazo[4,5-b]pyridin-6-yl)-3,5-dimethylisoxazole], the IC50 in the assay with c-myc is 300 to 3000 nM; in assay [1], at most 300 nM; in the assay with hIL-6 mRNA, 300 to 3000 nM; with human AML MV-4-11 cells, 300 to 3000 nM.

For the compound `Cc1noc(C)c1Cn1c(C)nc2ncc(-c3c(C)noc3C)cc21` [Example Compound 60, 4-((6-(3,5-dimethylisoxazol-4-yl)-2-methyl-1H-imidazo[4,5-b]pyridin-1-yl)methyl)-3,5-dimethylisoxazole], the IC50 in the assay with c-myc was 3000 to 30000 nM; in assay [1], 300 to 3000 nM; with hIL-6 mRNA, 300 to 3000 nM. In addition, the “Cell Proliferation activity” value in the assay with human AML MV-4-11 cells (72 h) was “Not active”.

Consider `Cc1noc(C)c1-c1cnc2nc(C)n(Cc3ccc(Cl)cc3Cl)c2c1` [Example Compound 61, 4-(1-(2,4-dichlorobenzyl)-2-methyl-1H-imidazo[4,5-b]pyridin-6-yl)-3,5-dimethylisoxazole], for which the IC50 in the assay with c-myc is 300 to 3000 nM; in assay [1] it was at most 300 nM; in the assay with hIL-6 mRNA, 300 to 3000 nM; in the assay with human AML MV-4-11 cells, 3000 to 30000 nM.

Take `COc1ccc(Cn2c(C)nc3ncc(-c4c(C)noc4C)cc32)cc1` [Example Compound 62, 4-(1-(4-methoxybenzyl)-2-methyl-1H-imidazo[4,5-b]pyridin-6-yl)-3,5-dimethylisoxazole]: the IC50 is 300 to 3000 nM in the assay on c-myc, at most 300 nM in assay [1], 300 to 3000 nM in the assay with hIL-6 mRNA and 300 to 3000 nM in the assay on human AML MV-4-11 cells.

For the compound `CCS(=O)(=O)Nc1cc(-c2c(C)noc2C)cc2c1nc(C)n2Cc1ccccc1` [Example Compound 65, N-(1-benzyl-6-(3,5-dimethylisoxazol-4-yl)-2-methyl-1H-benzo[d]imidazol-4-yl)ethanesulfonamide], the IC50 with c-myc is 300 to 3000 nM; in assay [1] it was at most 300 nM; in the assay with hIL-6 mRNA, 300 to 3000 nM; in the assay with human AML MV-4-11 cells, 300 to 3000 nM.

Consider `COc1cc(-c2c(C)noc2C)cc2c1nc(C)n2Cc1ccccc1` [Example Compound 66, 4-(1-benzyl-4-methoxy-2-methyl-1H-benzo[d]imidazol-6-yl)-3,5-dimethylisoxazole], for which the IC50 in the assay on c-myc is 300 to 3000 nM; in assay [1] it was at most 300 nM; in the assay with hIL-6 mRNA it was 300 to 3000 nM; in the assay on human AML MV-4-11 cells, 300 to 3000 nM.

As to `Cc1noc(C)c1-c1cc(N)c2oc(=O)n(Cc3ccccc3)c2c1` [compound 67, 7-amino-3-benzyl-5-(3,5-dimethylisoxazol-4-yl)benzo[d]oxazol-2(3H)-one], the IC50 with c-myc was at most 300 nM; in assay [1] it was at most 300 nM; in the assay on hIL-6 mRNA, at most 300 nM; in the assay on human AML MV-4-11 cells, 300 to 3000 nM.

Consider `Cc1noc(C)c1-c1cnc2nc(C)n(Cc3cccnc3)c2c1` [compound 68, 3,5-dimethyl-4-(2-methyl-1-(pyridin-3-ylmethyl)-1H-imidazo[4,5-b]pyridin-6-yl)isoxazole], for which the IC50 with c-myc was 300 to 3000 nM; in assay [1] it was at most 300 nM; in the assay with hIL-6 mRNA it was 300 to 3000 nM; with human AML MV-4-11 cells, 3000 to 30000 nM.

`Cc1noc(C)c1-c1cnc2nc(C)n(Cc3cccs3)c2c1` [compound 69, 3,5-dimethyl-4-(2-methyl-1-(thiophen-2-ylmethyl)-1H-imidazo[4,5-b]pyridin-6-yl)isoxazole]: the IC50 in the assay with c-myc was 300 to 3000 nM; in assay [1] it was at most 300 nM; in the assay with hIL-6 mRNA, 300 to 3000 nM; in the assay on human AML MV-4-11 cells it was 300 to 3000 nM.

Consider `Cc1noc(C)c1-c1cnc2ccn(Cc3ccccc3)c2c1` [compound 71, 4-(1-benzyl-1H-pyrrolo[3,2-b]pyridin-6-yl)-3,5-dimethylisoxazole], for which the IC50 was 300 to 3000 nM in the assay on c-myc, at most 300 nM in assay [1], 300 to 3000 nM with hIL-6 mRNA and 300 to 3000 nM in the assay with human AML MV-4-11 cells.

Take `Cc1noc(C)c1-c1cnc2c(CN(C)C)cn(Cc3ccccc3)c2c1` [compound 72, 1-(1-benzyl-6-(3,5-dimethylisoxazol-4-yl)-1H-pyrrolo[3,2-b]pyridin-3-yl)-N,N-dimethylmethanamine]: the IC50 in the assay on c-myc fell in the range of 3000 to 30000 nM; in assay [1], 300 to 3000 nM; in the assay with hIL-6 mRNA it was 3000 to 30000 nM; in the assay with human AML MV-4-11 cells it was 3000 to 30000 nM.

Regarding `Cc1noc(C)c1-c1cc(N)c2ccn(Cc3ccccc3)c2n1` [compound 73, 1-benzyl-6-(3,5-dimethylisoxazol-4-yl)-1H-pyrrolo[2,3-b]pyridin-4-amine], the IC50 lay in the range of 3000 to 30000 nM in the assay on c-myc, 300 to 3000 nM in assay [1], 300 to 3000 nM with hIL-6 mRNA and 3000 to 30000 nM in the assay with human AML MV-4-11 cells.

Consider `Cc1noc(C)c1-c1cnc2nc(C)n(Cc3ccncc3)c2c1` [compound 74, 3,5-dimethyl-4-(2-methyl-1-(pyridin-4-ylmethyl)-1H-imidazo[4,5-b]pyridin-6-yl)isoxazole], for which the IC50 in the assay on c-myc is 3000 to 30000 nM; in assay [1], 300 to 3000 nM; in the assay on hIL-6 mRNA it was 300 to 3000 nM; in the assay with human AML MV-4-11 cells it was 3000 to 30000 nM.

Turning to `Cc1noc(C)c1-c1cc(N)c2nc(C)n(CC3CC3)c2c1` [compound 75, 1-(cyclopropylmethyl)-6-(3,5-dimethylisoxazol-4-yl)-2-methyl-1H-benzo[d]imidazol-4-amine], the IC50 is 300 to 3000 nM in the assay with c-myc, at most 300 nM in assay [1], 300 to 3000 nM with hIL-6 mRNA and 300 to 3000 nM with human AML MV-4-11 cells.

Regarding `Cc1ccc(Cn2c(C)nc3ncc(-c4c(C)noc4C)cc32)s1` [compound 76, 3,5-dimethyl-4-(2-methyl-1-((5-methylthiophen-2-yl)methyl)-1H-imidazo[4,5-b]pyridin-6-yl)isoxazole], the IC50 in the assay with c-myc fell in the range of 300 to 3000 nM; in assay [1] it was 300 to 3000 nM; in the assay with hIL-6 mRNA, 300 to 3000 nM; in the assay with human AML MV-4-11 cells, 3000 to 30000 nM.

Turning to `Cc1noc(C)c1-c1cnc2nc(C)n(Cc3ccc(Cl)s3)c2c1` [compound 77, 4-(1-((5-chlorothiophen-2-yl)methyl)-2-methyl-1H-imidazo[4,5-b]pyridin-6-yl)-3,5-dimethylisoxazole], the IC50 with c-myc was 300 to 3000 nM; in assay [1] it was at most 300 nM; in the assay with hIL-6 mRNA it was 300 to 3000 nM; in the assay with human AML MV-4-11 cells it was 300 to 3000 nM.

Regarding `Cc1noc(C)c1-c1cnc2nc(C)n(Cc3ccc(C#N)s3)c2c1` [compound 78, 5-((6-(3,5-dimethylisoxazol-4-yl)-2-methyl-1H-imidazo[4,5-b]pyridin-1-yl)methyl)thiophene-2-carbonitrile], the IC50 is 3000 to 30000 nM in the assay on c-myc, at most 300 nM in assay [1], 300 to 3000 nM in the assay with hIL-6 mRNA and 3000 to 30000 nM in the assay on human AML MV-4-11 cells.
